The results in this text go back to patent US7452914B2, “Spiro-benzo[c]chromene derivatives useful as modulators of the estrogen receptors” (Janssen Pharmaceutica N.V., priority 2004, dated 2008).

One test has as its system MCF-7 cells. The experiment in a line: MCF-7 Cell Proliferation Assay (14C-thymidine incorporation). The format is cell-based. To be noted: for EC50: MCF7, agonist mode, increase in 14C-thymidine relative to vehicle control, read-out: Agonist (No.); for IC50: 10 nM 17β-estradiol added, 14C-thymidine, read-out: Antagonist (No.). The procedure:
This assay was run according to the procedure described by Welshons, et al., (Breast Cancer Res. Treat., 1987, 10(2), 169-75), with minor modification.
Briefly, MCF-7 cells (from Dr. C. Jordan, Northwestern University) were maintained in RPMI 1640 phenol red free medium (Gibco) in 10% FBS (Hyclone), supplemented with bovine insulin and non-essential amino acid (Sigma). The cells were initially treated with 4-hydoxyltamoxifen (10^−8 M) and let stand at 37° C. for 24 hours. Following this incubation with tamoxifen, the cells were treated with compounds at various concentrations.
Compounds to be tested in the agonist mode were added to the culture media at varying concentrations. Compounds to be treated in the antagonist mode were prepared similarly, and 10 nM 17β-estradiol was also added to the culture media. The cells were incubated for 24 hours at 37° C. Following this incubation, 0.1 µCi of ^14C-thymidine (56 mCi/mmol, Amersham) was added to the culture media and the cells were incubated for an additional 24 hours at 37° C. The cells were then washed twice with Hank's buffered salt solution (HBSS) (Gibco) and counted with a scintillation counter. The increase in the ^14C-thymidine in the compound treated cells relative to the vehicle control cells were reported as percent increase in cell proliferation.
For orientation: Uptake of a labelled nucleoside into DNA is a usual measure of proliferation.

Test [1] deals with Human Endometrial Ishikawa Cells. Briefly: Alkaline Phosphatase Assay in Human Endometrial Ishikawa Cells. The format is cell-based. Particulars: alkaline phosphatase activity, chemiluminescence; for EC50: 72 h, agonist mode, 3 days incubation, read-out: Agonist (No.); for IC50: antagonist mode, 10 nM 17β-estradiol added, read-out: Antagonist (No.). As for the experimental part:
This assay was run according to the procedure described by Albert et a., Cancer Res, […], 50(11), 330-6-10, with minor modification.
Ishikawa cells (from ATCC) were maintained in DMEM/F12 (1:1) phenol red free medium (Gibco) supplemented with 10% calf serum (Hyclone). 24 hours prior to testing, the medium was changed to DMEM/F12 (1:1) phenol red free containing 2% calf serum.
Compounds to be tested in the agonist mode were added to the culture media at varying concentrations. Compounds to be treated in the antagonist mode were prepared similarly, and 10 nM 17β-estradiol was also added to the culture media. The cells were then incubated at 37° C. for 3 days. On the fourth day, the media was remove, 1 volume of 1× Dilution Buffer (Clontech) was added to the well followed by addition of 1 volume of Assay Buffer (Clontech). The cells were then incubated at room temperature for 5 minutes. 1 volume of freshly prepared Chemiluminescence Buffer (1 volume of chemiluminescent substrate (CSPD) in 19 volume Chemiluminescent Enhancer with final concentration of CSPD at 1.25 mM; Sigma Chemical Co.) was added. The cells were incubated at room temperature for 10 minutes and then quantified on a luminometer. The increase of chemiluminescence over vehicle control was used to calculate the increase in alkaline phosphatase activity.

The mark [2] stands for this setting: Homo sapiens, MCF7, antagonist mode.

Read-outs that look alike come from different tables or passages of the source.

Regarding `Oc1ccc2c(c1)O[C@H](c1ccc(OCCN3CCCCC3)cc1)C1=C2CCC2(C1)SCCS2` (stereo in doubt) [R*-11, 9R*-2-(Hydroxy)-{9-[4′-(2′-piperidinyl-ethoxy)-phenyl]-11,14-spiro[4,5]-5,6,7,8-tetrahydro-9H-benzo[c]chromene], the EC50 (in the test on MCF-7 cells (Homo sapiens); in test [1] (Homo sapiens)) was greater than 10 µM throughout. For the same compound, the IC50 in the test with MCF-7 cells (setting [2]) was determined as 0.672 µM; in test [1] (Homo sapiens) it was 0.0419 µM.

`O=S1(=O)CCCS(=O)(=O)C12CCC1=C(C2)C(c2ccc(OCCN3CCCCC3)cc2)Oc2cc(O)ccc21` (stereo not drawn) [Compound 17]: the EC50 (in the test on MCF-7 cells (Homo sapiens); in test [1] (Homo sapiens)) was greater than 10 µM in each case. For the same compound, the IC50 (with MCF-7 cells (setting [2]); in test [1] (Homo sapiens)) was greater than 10 µM throughout.

As for `Oc1ccc2c(c1)OC(c1ccc(OCCN3CCCC3)cc1)C1=C2CCC2(C1)SCCS2` (stereo not drawn) [Compound 13], the EC50 (in the test on MCF-7 cells (Homo sapiens); in test [1] (Homo sapiens)) was greater than 10 µM throughout. Also, the IC50 was greater than 10 µM in the test with MCF-7 cells (setting [2]) and 1.05 µM in test [1] (Homo sapiens).

As to `Oc1ccc2c(c1)OC(c1ccc(OCCN3CCCCC3)cc1)C1=C2CCC2(C1)SCCCS2` (stereo not drawn) [Compound 12], the EC50 (in the test with MCF-7 cells (Homo sapiens); in test [1] (Homo sapiens)) was greater than 10 µM each time. In addition, the IC50 in the test with MCF-7 cells (setting [2]) was 0.686 µM; in test [1] (Homo sapiens) it was 0.0351 µM.

In the case of “9S*-2″,2″-Dimethyl-propionic Acid-{9-[4′-(2′-piperidinyl-ethoxy)-phenyl]-11,15-spiro[5,5]-5,6,7,8-tetrahydro-9H-benzo[c]chromen-2-yl Ester [S*-16]”, the IC50 (in the test on MCF-7 cells (antagonist mode); in test [1]) was greater than 10 µM each time.

Take “9R*-2″,2″-Dimethyl-propionic Acid-{9-[4′-(2′-piperidinyl-ethoxy)-phenyl]-11,15-spiro[5,5]-5,6,7,8-tetrahydro-9H-benzo[c]chromen-2-yl Ester [R*-16]”: the results for the IC50 (with MCF-7 cells (antagonist mode); in test [1]) were 0.271 µM and 0.0258 µM, respectively.

For the compound `Oc1ccc2c(c1)O[C@@H](c1ccc(OCCN3CCCCC3)cc1)C1=C2CCC2(C1)SCCS2` (stereo in doubt) [S*-11, 9S*-2-(Hydroxy)-{9-[4′-(2′-piperidinyl-ethoxy)-phenyl]-11,14-spiro[4,5]-5,6,7,8-tetrahydro-9H-benzo[c]chromene], the EC50 (in the test with MCF-7 cells (Homo sapiens); in test [1] (Homo sapiens)) was greater than 10 µM in each case. Further, the IC50 in the test on MCF-7 cells (setting [2]) is greater than 10 µM; in test [1] (Homo sapiens) it was 1.02 µM.

Regarding `Oc1ccc2c(c1)OC(c1ccc(OCCN3CCCCC3)cc1)C1=C2CCC2(C1)SCCS2` (stereo not drawn) [Compound 11], the EC50 (in the test with MCF-7 cells (Homo sapiens); in test [1] (Homo sapiens)) was greater than 10 µM each time. Moreover, the figures for the IC50 (in the test on MCF-7 cells (setting [2]); in test [1] (Homo sapiens)) were 1.06 µM and 0.0296 µM, respectively.

For the compound “9S*-2″,2″-Dimethyl-propionic Acid-{9-[4′-(2′-piperidinyl-ethoxy)-phenyl]-11,14-spiro[4,5]-5,6,7,8-tetrahydro-9H-benzo[c]chromen-2-yl Ester [S*-15]”, the IC50 (in the test on MCF-7 cells (antagonist mode); in test [1]) was greater than 10 µM throughout.

In the case of “9R*-2″,2″-Dimethyl-propionic Acid-{9-[4′-(2′-piperidinyl-ethoxy)-phenyl]-11,14-spiro[4,5]-5,6,7,8-tetrahydro-9H-benzo[c]chromen-2-yl Ester [R*-15]”, the IC50 came out at 0.769 µM in the test with MCF-7 cells (antagonist mode) and 0.22 µM in test [1].

`CCN(CC)CCOc1ccc(C2Oc3cc(O)ccc3C3=C2CC2(CC3)SCCS2)cc1` (stereo not drawn) [Compound 14]: the EC50 (in the test on MCF-7 cells (Homo sapiens); in test [1] (Homo sapiens)) was greater than 10 µM each time. In addition, the figures for the IC50 (with MCF-7 cells (setting [2]); in test [1] (Homo sapiens)) were 4.97 µM and 0.0659 µM, respectively.
